In experiment [1] the test system is MDA-MB-231. As to the kind of experiment: Inhibition of cell migration in human MDA-MB-231 cells. The format is functional, cell-based.
Experiment [2] deals with Escherichia coli. The experiment in a line: Antibacterial activity against tetracycline resistant Escherichia coli. The format is functional.
The subject of experiment [3] is Escherichia coli. As to the kind of experiment: Antibacterial activity against tetracycline resistant Escherichia coli 1-849. The format is functional.

≈ marks a conversion by molar mass, not a printed value.

In general, IC50 refers to the point on the concentration scale where inhibition reaches its midpoint. Higher therefore signals weaker potency in that assay. With `CCCCCCCCCCCCCC(=O)NCCNC(=O)C(C)(C)C(=O)NCCO[C@@H]1O[C@H](COC(C)=O)[C@@H](O[C@@H]2O[C@H](COC(C)=O)[C@H](OC(C)=O)[C@H](OC(C)=O)[C@H]2OC(C)=O)[C@H](OC(C)=O)[C@H]1OC(C)=O`, the IC50 in experiment [1] is more than 50 µM.
In general, MIC refers to the smallest concentration in the dilution series that meets the test's criterion for growth inhibition. A higher MIC goes with weaker potency. Turning to `C[C@H]1O[C@@H](O[C@@H]2[C@@H](O)[C@H](N)C[C@H](N)[C@H]2O[C@H]2O[C@H](CN)[C@@H](O)[C@H](O)[C@H]2N)[C@H](O)[C@@H](O)[C@H]1N`, inhibition of growth in experiment [2] (MIC) required 9 µM (≈ 4.21 µg/mL).
On to `CON(CC(=O)Nc1ccc2c(c1O)C(=O)C1=C(O)[C@]3(O)C(=O)C(C(N)=O)=C(O)[C@@H](N(C)C)[C@@H]3[C@@H](O)[C@@H]1[C@H]2C)[C@H]1O[C@H](CO)[C@@H](O)[C@H](O)[C@H]1N`, for which, in experiment [3], 4 µg/mL (≈ 5.65 µM) was the least that counted as inhibitory (MIC).
As for `C[C@H]1O[C@@H](O[C@@H]2[C@@H](O)[C@H](N)C[C@H](N)[C@H]2O[C@H]2O[C@H](CN)[C@@H](O)[C@H](O)[C@H]2N)[C@H](O)[C@@H](O)[C@@H]1N`, the MIC in experiment [2] was 9 µM (≈ 4.21 µg/mL).
In experiment [2], `NC[C@@H]1O[C@H](O[C@H]2[C@@H](O)[C@H](O[C@@H]3[C@@H](O)[C@H](N)C[C@H](N)[C@H]3O[C@H]3O[C@H](CN)[C@@H](O)[C@H](O)[C@H]3N)O[C@@H]2CO)[C@H](N)[C@@H](O)[C@@H]1O` [FRAMYCETIN] yielded an MIC of 2 µM (≈ 1.23 µg/mL).

The values are drawn from ChEMBL document CHEMBL5241060, “Glycorandomization: A promising diversification strategy for the drug development” (Eur J Med Chem, 2021).
